According to the supplement of paper PMC10307832:

Columns and labels:
MK-2206 = compound: NC1(c2ccc(-c3nc4ccn5c(=O)[nH]nc5c4cc3-c3ccccc3)cc2)CCC1 [MK-2206]; experiment: relative viability (nuclei count vs DMSO), 5 days (fraction); higher = more cells survive
Method in brief: (§1)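 Viability is treated-well nuclei as a fraction of vehicle-well nuclei, reported as the median across plates. Before counting, lung cancer cell lines were kept overnight at 37 °C in 1536-well plates, pinned with five √10-spaced library-drug doses on vehicle-anchored plates, and left 5 days without medium change, then fixed, permeabilised and Hoechst-stained in one step, imaged at 4× and counted by MetaXpress. A plate passed only if control CV was below 25% and at least one doubling occurred.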

Pictilisib = compound: CS(=O)(=O)N1CCN(Cc2cc3nc(-c4cccc5[nH]ncc45)nc(N4CCOCC4)c3s2)CC1 [Pictilisib]; experiment: as above
Method in brief: as §1

## SW 900
MK-2206; 0.01 µM
  relative viability: 0.862
MK-2206; 0.03162 µM
  relative viability: 0.731
MK-2206; 0.3162 µM
  relative viability: 0.866
MK-2206; 1 µM
  relative viability: 0.629
Pictilisib; 0.02 µM
  relative viability: 1.02
Pictilisib; 0.06325 µM
  relative viability: 0.93
Pictilisib; 0.6325 µM
  relative viability: 0.632
Pictilisib; 2 µM
  relative viability: 0.565

## PC-3 [JPC-3]
MK-2206; 0.01 µM
  relative viability: 1.02
MK-2206; 0.03162 µM
  relative viability: 1.04
MK-2206; 0.3162 µM
  relative viability: 1.11
MK-2206; 1 µM
  relative viability: 1.07
Pictilisib; 0.02 µM
  relative viability: 1.06
Pictilisib; 0.06325 µM
  relative viability: 1.13
Pictilisib; 0.6325 µM
  relative viability: 1.1
Pictilisib; 1 µM, anchor plate
  relative viability: 0.735
Pictilisib; 2 µM
  relative viability: 0.856

## NCI-H1703
MK-2206; 0.01 µM
  relative viability: 0.985
MK-2206; 0.03162 µM
  relative viability: 0.868
MK-2206; 0.3162 µM
  relative viability: 0.825
MK-2206; 1 µM
  relative viability: 0.784
Pictilisib; 0.02 µM
  relative viability: 0.929
Pictilisib; 0.06325 µM
  relative viability: 0.806
Pictilisib; 0.6325 µM
  relative viability: 0.408
Pictilisib; 1 µM, anchor plate
  relative viability: 0.244
Pictilisib; 2 µM
  relative viability: 0.208

## EPLC-272H
MK-2206; 0.01 µM
  relative viability: 1.09
MK-2206; 0.03162 µM
  relative viability: 0.914
MK-2206; 0.3162 µM
  relative viability: 0.77
MK-2206; 1 µM
  relative viability: 0.716
Pictilisib; 0.02 µM
  relative viability: 0.988
Pictilisib; 0.06325 µM
  relative viability: 0.909
Pictilisib; 0.6325 µM
  relative viability: 0.668
Pictilisib; 1 µM, anchor plate
  relative viability: 0.332
Pictilisib; 2 µM
  relative viability: 0.496

## NCI-H1792
MK-2206; 0.01 µM
  relative viability: 0.941
MK-2206; 0.03162 µM
  relative viability: 0.869
MK-2206; 0.3162 µM
  relative viability: 0.971
MK-2206; 1 µM
  relative viability: 0.677
Pictilisib; 0.02 µM
  relative viability: 0.762
Pictilisib; 0.06325 µM
  relative viability: 1.1
Pictilisib; 0.6325 µM
  relative viability: 0.618
Pictilisib; 1 µM, anchor plate
  relative viability: 0.31
Pictilisib; 2 µM
  relative viability: 0.236

## NCI-H2085
MK-2206; 0.01 µM
  relative viability: 0.965
MK-2206; 0.03162 µM
  relative viability: 1.01
MK-2206; 0.3162 µM
  relative viability: 0.957
MK-2206; 1 µM
  relative viability: 0.969
Pictilisib; 0.02 µM
  relative viability: 0.956
Pictilisib; 0.06325 µM
  relative viability: 0.99
Pictilisib; 0.6325 µM
  relative viability: 0.836
Pictilisib; 1 µM, anchor plate
  relative viability: 0.471
Pictilisib; 2 µM
  relative viability: 0.442

## LK-2
MK-2206; 0.01 µM
  relative viability: 0.944
MK-2206; 0.03162 µM
  relative viability: 1.09
MK-2206; 0.3162 µM
  relative viability: 1.05
MK-2206; 1 µM
  relative viability: 0.911
Pictilisib; 0.02 µM
  relative viability: 0.938
Pictilisib; 0.06325 µM
  relative viability: 0.926
Pictilisib; 0.6325 µM
  relative viability: 0.656
Pictilisib; 1 µM, anchor plate
  relative viability: 0.598
Pictilisib; 2 µM
  relative viability: 0.415

## NCI-H1395
MK-2206; 0.01 µM
  relative viability: 1
MK-2206; 0.03162 µM
  relative viability: 0.91
MK-2206; 0.3162 µM
  relative viability: 0.701
MK-2206; 1 µM
  relative viability: 0.793
Pictilisib; 0.02 µM
  relative viability: 1.12
Pictilisib; 0.06325 µM
  relative viability: 1.01
Pictilisib; 0.6325 µM
  relative viability: 0.715
Pictilisib; 1 µM, anchor plate
  relative viability: 0.649
Pictilisib; 2 µM
  relative viability: 0.54

## ABC-1
MK-2206; 0.01 µM
  relative viability: 0.947
MK-2206; 0.03162 µM
  relative viability: 0.949
MK-2206; 0.3162 µM
  relative viability: 0.884
MK-2206; 1 µM
  relative viability: 0.879
Pictilisib; 0.02 µM
  relative viability: 1.02
Pictilisib; 0.06325 µM
  relative viability: 0.962
Pictilisib; 0.6325 µM
  relative viability: 0.764
Pictilisib; 1 µM, anchor plate
  relative viability: 0.782
Pictilisib; 2 µM
  relative viability: 0.551

## RERF-LC-KJ
MK-2206; 0.01 µM
  relative viability: 0.943
MK-2206; 0.03162 µM
  relative viability: 0.997
MK-2206; 0.3162 µM
  relative viability: 0.854
MK-2206; 1 µM
  relative viability: 0.919
Pictilisib; 0.02 µM
  relative viability: 0.974
Pictilisib; 0.06325 µM
  relative viability: 0.944
Pictilisib; 0.6325 µM
  relative viability: 0.807
Pictilisib; 1 µM, anchor plate
  relative viability: 0.565
Pictilisib; 2 µM
  relative viability: 0.575

## LU99A
MK-2206; 0.01 µM
  relative viability: 1.01
MK-2206; 0.03162 µM
  relative viability: 1.07
MK-2206; 0.3162 µM
  relative viability: 0.961
MK-2206; 1 µM
  relative viability: 1.02
Pictilisib; 0.02 µM
  relative viability: 1.01
Pictilisib; 0.06325 µM
  relative viability: 0.971
Pictilisib; 0.6325 µM
  relative viability: 0.794
Pictilisib; 1 µM, anchor plate
  relative viability: 0.327
Pictilisib; 2 µM
  relative viability: 0.425

## NCI-H650
MK-2206; 0.01 µM
  relative viability: 0.986
MK-2206; 0.03162 µM
  relative viability: 0.854
MK-2206; 0.3162 µM
  relative viability: 0.97
MK-2206; 1 µM
  relative viability: 0.764
Pictilisib; 0.02 µM
  relative viability: 1.03
Pictilisib; 0.06325 µM
  relative viability: 0.958
Pictilisib; 0.6325 µM
  relative viability: 0.848
Pictilisib; 1 µM, anchor plate
  relative viability: 0.865
Pictilisib; 2 µM
  relative viability: 0.687

## NCI-H2347
MK-2206; 0.01 µM
  relative viability: 0.952
MK-2206; 0.03162 µM
  relative viability: 0.997
MK-2206; 0.3162 µM
  relative viability: 0.997
MK-2206; 1 µM
  relative viability: 0.945
Pictilisib; 0.02 µM
  relative viability: 1.02
Pictilisib; 0.06325 µM
  relative viability: 1.05
Pictilisib; 0.6325 µM
  relative viability: 0.934
Pictilisib; 1 µM, anchor plate
  relative viability: 0.644
Pictilisib; 2 µM
  relative viability: 0.708

## HARA
MK-2206; 0.01 µM
  relative viability: 0.972
MK-2206; 0.03162 µM
  relative viability: 1.08
MK-2206; 0.3162 µM
  relative viability: 1.08
MK-2206; 1 µM
  relative viability: 0.832
Pictilisib; 0.02 µM
  relative viability: 1.05
Pictilisib; 0.06325 µM
  relative viability: 1.13
Pictilisib; 0.6325 µM
  relative viability: 0.846
Pictilisib; 1 µM, anchor plate
  relative viability: 0.401
Pictilisib; 2 µM
  relative viability: 0.555

## NCI-H2228
MK-2206; 0.01 µM
  relative viability: 0.871
MK-2206; 0.03162 µM
  relative viability: 0.845
MK-2206; 0.3162 µM
  relative viability: 0.658
MK-2206; 1 µM
  relative viability: 0.517
Pictilisib; 0.02 µM
  relative viability: 0.962
Pictilisib; 0.06325 µM
  relative viability: 0.998
Pictilisib; 0.6325 µM
  relative viability: 0.742
Pictilisib; 1 µM, anchor plate
  relative viability: 0.413
Pictilisib; 2 µM
  relative viability: 0.361

## EKVX
MK-2206; 0.01 µM
  relative viability: 1.01
MK-2206; 0.03162 µM
  relative viability: 0.952
MK-2206; 0.3162 µM
  relative viability: 0.936
MK-2206; 1 µM
  relative viability: 0.758
Pictilisib; 0.02 µM
  relative viability: 0.911
Pictilisib; 0.06325 µM
  relative viability: 0.941
Pictilisib; 0.6325 µM
  relative viability: 0.91
Pictilisib; 1 µM, anchor plate
  relative viability: 0.433
Pictilisib; 2 µM
  relative viability: 0.453

## HCC-827
MK-2206; 0.01 µM
  relative viability: 1.04
MK-2206; 0.03162 µM
  relative viability: 1.05
MK-2206; 0.3162 µM
  relative viability: 1.05
MK-2206; 1 µM
  relative viability: 0.932
Pictilisib; 0.02 µM
  relative viability: 1.11
Pictilisib; 0.06325 µM
  relative viability: 1.05
Pictilisib; 0.6325 µM
  relative viability: 1.05
Pictilisib; 1 µM, anchor plate
  relative viability: 0.939
Pictilisib; 2 µM
  relative viability: 0.866

## NCI-H1755
MK-2206; 0.01 µM
  relative viability: 0.955
MK-2206; 0.03162 µM
  relative viability: 0.989
MK-2206; 0.3162 µM
  relative viability: 0.907
MK-2206; 1 µM
  relative viability: 0.918
Pictilisib; 0.02 µM
  relative viability: 1.01
Pictilisib; 0.06325 µM
  relative viability: 0.979
Pictilisib; 0.6325 µM
  relative viability: 0.925
Pictilisib; 1 µM, anchor plate
  relative viability: 0.434
Pictilisib; 2 µM
  relative viability: 0.639

## NCI-H661
MK-2206; 0.01 µM
  relative viability: 0.997
MK-2206; 0.03162 µM
  relative viability: 1.02
MK-2206; 0.3162 µM
  relative viability: 1.03
MK-2206; 1 µM
  relative viability: 1.01
Pictilisib; 0.02 µM
  relative viability: 1.02
Pictilisib; 0.06325 µM
  relative viability: 1.05
Pictilisib; 0.6325 µM
  relative viability: 1.03
Pictilisib; 1 µM, anchor plate
  relative viability: 0.424
Pictilisib; 2 µM
  relative viability: 0.672
